Read-outs that look alike come from different tables or passages of the source.
What was measured:
[1] = tested on: human platelets (U46619-induced serotonin secretion); experiment: inhibition of U46619-induced serotonin secretion in presence of aspirin, human platelet-rich plasma; assay type: cell-based; settings: U46619 0.5-1.5 μM, aspirin 1 mM
Experimental: (§1) The antiaggregatory and antisecretory activity on human platelets was determined by evaluating the in vitro aggregation and [^14 C]serotonin secretion in human platelet preparations. Blood was taken by venipuncture from normal human volunteers who were reported to be free of medication for at least 10 days before blood drawing. Venous blood samples were mixed with acid-citrate dextrose solution (9:1) and centrifuged at 120×g for 15 minutes at room temperature to obtain platelet-rich plasma, PRP, (Huzoor-Akbar et al., Biochem. Pharmacol., 30: 2013-2020, 1981). The PRP was transferred to polypropylene tubes and stored under an atmosphere of 8% CO2. The remaining blood was centrifuged at 1000×g for 10 minutes to obtain platelet-poor plasma. […] Platelet counts varied between 280,000 to 320,000 per cmm or were adjusted to 300,000 per cmm for the aggregation and secretion experiments. All studies were conducted within 2 hours after PRP recovery.
(§2) For aggregation studies, 0.5 ml of PRP was incubated with drug or vehicle (1-5 μl) for 1 minute at 37° C. before the initiation of aggregation with inducers. […] In all experiments, the minimum concentration of inducer (adenosine diphosphate ADP; epinephrine, E; 15S-hydroxy-11α,9α-epoxymethanoprosta-5Z,13E-dienoic acid, U46619; collagen; and arachidonic acid, AA) which caused maximal irreversible aggregation within each PRP preparation was used. Aggregation was monitored for 4 to 6 minutes after the addition of an inducer and data were presented as a percentage inhibition of either slope or maximal light transmittance changes in the presence of varying drug concentrations.
(§3) Secretion data were calculated as the net increase of serotonin released into the supernatant by each inducer and expressed as a percentage of the total radioactivity in platelets Mayo et al., Biochem. Pharmacol., 30: 2237-2241, 1981. The effect of compounds on serotonin release was expressed as the percentage of inhibition of the maximum release by each inducer and plotted against the log molar concentrations of each agent.

[2] = tested on: human platelets (collagen-induced aggregation); experiment: inhibition of collagen-induced platelet aggregation, human platelet-rich plasma; assay type: cell-based; settings: collagen 10-100 μg/ml
Experimental: as §1, §2

[3] = tested on: human platelets (U46619-induced aggregation); experiment: inhibition of U46619-induced platelet aggregation in presence of aspirin, human platelet-rich plasma; assay type: cell-based; settings: U46619 0.5-1.5 μM, aspirin 1 mM
Experimental: as §1, §2

[4] = phenol acidities (pKa) determined spectrophotometrically; assay type: physicochemical; settings: for pKa: phenol, tris(hydroxymethyl)aminomethane buffer, UV; for times more acidic than 1: relative to trimetoquinol 1
Experimental: Phenol acidities (pKa) were determined spectrophotometrically, as described by Albert et al., "The determination of Ionization Constants" 3rd Ed., Chapman and Hall, London and New York, 1984, by measuring the absorption as a function of pH in tris(hydroxymethyl)aminomethane buffer. Since the catechols tended to oxidize in basic media the buffers were degassed and flushed with argon prior to use.

[5] = tested on: human platelets (ADP-induced serotonin secretion); experiment: inhibition of ADP-induced serotonin secretion, human platelet-rich plasma; assay type: cell-based; settings: ADP 1-3 μM
Experimental: as §1, §2, §3

human platelets = experiment: human platelet aggregation and serotonin release, inducers taken together; assay type: cell-based; settings: for inhibition of aggregation and serotonin release: each inducer
Experimental: as §1, §2, §3

[6] = tested on: human platelets (collagen-induced serotonin secretion); experiment: inhibition of collagen-induced serotonin secretion, human platelet-rich plasma; assay type: cell-based; settings: collagen 10-100 μg/ml
Experimental: as §1, §2, §3

[7] = tested on: human platelets (epinephrine-induced serotonin secretion); experiment: inhibition of epinephrine-induced serotonin secretion, human platelet-rich plasma; assay type: cell-based; settings: epinephrine 1-10 μM
Experimental: as §1, §2, §3

[8] = tested on: human platelets (arachidonic acid-induced aggregation); experiment: inhibition of arachidonic acid-induced platelet aggregation, human platelet-rich plasma; assay type: cell-based; settings: arachidonic acid 100-300 μM
Experimental: as §1, §2

[9] = tested on: human platelets (ADP-induced aggregation); experiment: inhibition of the secondary phase of ADP-induced platelet aggregation, human platelet-rich plasma; assay type: cell-based; settings: ADP 1-3 μM
Experimental: as §1, §2

[10] = tested on: human platelets (epinephrine-induced aggregation); experiment: inhibition of the secondary phase of epinephrine-induced platelet aggregation, human platelet-rich plasma; assay type: cell-based; settings: epinephrine 1-10 μM
Experimental: as §1, §2

[11] = tested on: human platelets (arachidonic acid-induced serotonin secretion); experiment: inhibition of arachidonic acid-induced serotonin secretion, human platelet-rich plasma; assay type: cell-based; settings: arachidonic acid 100-300 μM
Experimental: as §1, §2, §3

[12] = read-out: IC50 serotonin secretion
[13] = read-out: pIC50 serotonin secretion (converted)
[14] = read-out: IC50 platelet aggregation
[15] = read-out: pIC50 platelet aggregation (converted)
[16] = read-out: IC50 platelet aggregation (secondary phase)
[17] = read-out: pIC50 platelet aggregation (secondary phase) (converted)

Compound | IC50 [1, 12] [µM] | IC50 [1, 13] [µM] | IC50 [2, 14] [µM] | IC50 [2, 15] [µM] | IC50 [3, 14] [µM] | IC50 [3, 15] [µM] | pKa [4] | times more acidic than 1 [4] [times] | IC50 [5, 12] [µM] | IC50 [5, 13] [µM] | inhibition of aggregation and serotonin release (human platelets) | IC50 [6, 12] [µM] | IC50 [6, 13] [µM] | IC50 [7, 12] [µM] | IC50 [7, 13] [µM] | IC50 [8, 14] [µM] | IC50 [8, 15] [µM] | IC50 [9, 16] [µM] | IC50 [9, 17] [µM] | IC50 [10, 16] [µM] | also measured
COc1cc(CC2NCCc3c2cc(O)c(O)c3F)cc(OC)c1OC (centres unmarked) [Compound 5-F-TMQ, 5-fluoro-trimetoquinol] | 6.9 | 6.92 | 51.3 | 51.3 | 7.4 | 7.41 | 8.11 ± 0.15 | 4 | 17 | 17 | inhibitors of aggregation and serotonin release by each inducer | 13.2 | 13.2 | 7.4 | 7.59 | 77.5 | 77.6 | 15.1 | 15.1 | 14.8 | IC50 [10, 17]: 14.8 µM; IC50 [11, 12]: 55 µM; IC50 [11, 13]: 55 µM
COc1cc(CC2NCCc3cc(O)c(O)c(F)c32)cc(OC)c1OC (centres unmarked) [Compound 8-F-TMQ, 8-fluoro-trimetoquinol] | 4.4 | 4.37 | 9.8 | 9.77 | 3.9 | 3.89 | 7.86 ± 0.15 | 8 | 6.6 | 6.61 | inhibitors of aggregation and serotonin release by each inducer | 7.6 | 7.59 | 3.5 | 3.47 | 26.2 | 26.3 | 6.5 | 6.46 | 11 | potency relative to 2 as an inhibitor of human platelet activation (human platelets; relative to analog 2): about 2 fold; IC50 [10, 17]: 11 µM; IC50 [11, 12]: 21.9 µM; IC50 [11, 13]: 21.9 µM

Reference: patent publication US4737504A, “5-fluoro-and 8-fluoro-trimetoquinol compounds and the processes for their preparation” (priority 1986, dated 1988)
